# Data: patent US20250134875A1, “FORMULATIONS OF ALK-5 KINASE INHIBITORS AND USES THEREOF” (Thirona Bio, Inc., priority 2023, published 2025)
# Columns and labels:
# [1] = Solubility assessment in solvent and excipient systems (formulated systems); type: physicochemical; conditions: 25° C.
# From the text: Table 5 provides the solubility of Compound 1 in various solvents and excipient systems to analyze the topical systems to be utilized with the formulations.
# [2] = Excipient compatibility / stability study (HPLC, 2 weeks); type: physicochemical; conditions: for Loss of Compound 1 on storage / Stability conclusion: 2 weeks; for Stability conclusion: RT, 40 and 50° C.
# Experimental: Stability studies were conducted to evaluate compatibility and stability of Compound 1 with some of the excipients included in the solubility experiments. The stability was assessed using the validated API HPLC method after storage at room temperature (RT), 40° C. and 50° C. for 2 weeks. The summary of the data generated from these experiments is provided below in Table 6 below.
# [3] = Stability studies (storage and forced degradation); type: physicochemical
# Experimental: The physical solubility of the formulation is an important factor in the development of the formulation.
# The active ingredient, Compound 1, is very stable, and has known stability of greater than 5 years.
# The stability studies were also conducted by storing the samples under the conditions of accelerated degradation (40° C./75% RH). The stress conditions and the resulting stability of the formulation is provided below.
# [4] = system: profibrotic genes; test: Gene expression (RNA sequencing) in surgical incision-induced dermal fibrosis model; type: in vivo, Göttingen minipig
# Experimental: Minipig skin is more similar to human skin than rodent skin, and dermal delivery of topical ALK-5 kinase inhibitor Compound 1 in minipigs is expected to be reflective of treatment of human skin. Therefore, a model of surgical incision-induced dermal fibrosis was established in minipigs and the effects of topical Compound 1 were evaluated by visual assessment, histologic examination and gene expression by RNA sequencing.
# (§1) The study was conducted in 4 female Göttingen SPF minipigs. On Day 1, eight full thickness incisional wounds, four on each side, were performed on each animal. Compound 1 0% (Vehicle), 0.1%, 0.3% or 1% was applied topically twice daily for 14 days from Day 7 through Day 20 on each incision. All animals received a dose volume of 160 μl per wound ([…] applied to a 32 cm2 area surrounding each incision). Clinical signs, visual observations of incisions, body weight and food consumption were recorded during the in-life period. At necropsy (Day 21) two biopsies were collected from each incision for histopathology and gene expression analysis.
# For gene expression analysis, a 0.3 cm punch biopsy was collected from the incisional wounds. Samples were collected and stored overnight in prefilled tubes containing RNAlater at 5±3° C., and then transferred to a freezer and stored at ˜−20° C. The biopsies collected were then thawed and subjected to RNA purification and then generation of mRNA-enriched cDNA libraries for Illumina sequencing. RNA sequencing was performed to a depth of ˜15 million reads followed by bioinformatic analysis, including differential gene expression analysis.
# [5] = system: surgical incision-induced dermal fibrosis; test: Surgical incision-induced dermal fibrosis model: clinical signs, visual assessment, histology; type: in vivo, Göttingen minipig
# Experimental: . Therefore, a model of surgical incision-induced dermal fibrosis was established in minipigs and the effects of topical Compound 1 were evaluated by visual assessment, histologic examination and gene expression by RNA sequencing.
# as §1, with “[…].” for “Compound 1 0% (Vehicle), 0.1%, 0.3% or 1% was applied topically twice daily for 14 days from Day 7 through Day 20 on each incision.”
# For histopathology, a 0.8 cm punch biopsy was collected from the incisional wounds. The biopsies were divided into two, diagonal to the incisional wound. All biopsies were individually fixed in phosphate buffered neutral 4% formaldehyde. Following fixation, all incisional wound biopsies collected for microscopic examination were trimmed and processed. The specimens were embedded in paraffin and cut at a nominal thickness of approximately […], stained with haematoxylin and eosin, and examined by light microscopy.
# [6] = topical 0.1%, 0.3% or 1% twice daily Day 7-20, biopsy Day 21
compound,measurement,setting,value
Cc1cccc(-n2ncc(C)c2-c2cc3cnccc3s2)n1 [Compound 1],Max solubility of Compound 1,"[1]; Aqueous Gels, aqueous component 10-30% w/w",1-2.7%/w
same,Max solubility of Compound 1,"[1]; Creams & Lotions, aqueous component 30-40% w/w",1-1.5%/w
same,Max solubility of Compound 1,"[1]; Non-Aqueous Gels & Film forming solutions, aqueous component 0.0% w/w",3-3.5%/w
same,Loss of Compound 1 on storage,"[2]; Benzyl Alcohol +0.1% BHT, 40° C.",No Loss
same,Loss of Compound 1 on storage,"[2]; Benzyl Alcohol +0.1% BHT, 50° C.",No Loss
same,Loss of Compound 1 on storage,"[2]; Benzyl Alcohol +0.1% BHT, RT storage",No Loss
same,Stability conclusion,[2]; Benzyl Alcohol +0.1% BHT,STABLE AT ALL
same,Loss of Compound 1 on storage,"[2]; Benzyl Alcohol, 40° C.",No Loss
same,Loss of Compound 1 on storage,"[2]; Benzyl Alcohol, 50° C.",No Loss
same,Loss of Compound 1 on storage,"[2]; Benzyl Alcohol, RT storage",No Loss
same,Stability conclusion,[2]; Benzyl Alcohol,STABLE AT ALL
same,Loss of Compound 1 on storage,"[2]; Diethyl Sebacate, 40° C.",3-4% loss
same,Loss of Compound 1 on storage,"[2]; Diethyl Sebacate, 50° C.",6% loss
same,Loss of Compound 1 on storage,"[2]; Diethyl Sebacate, RT storage",No Loss
same,Stability conclusion,[2]; Diethyl Sebacate,Some Instability
same,Loss of Compound 1 on storage,"[2]; PEG 400 + 0.1% BHT, 40° C.",No Loss
same,Loss of Compound 1 on storage,"[2]; PEG 400 + 0.1% BHT, 50° C.",No Loss
same,Loss of Compound 1 on storage,"[2]; PEG 400 + 0.1% BHT, RT storage",No Loss
same,Loss of Compound 1 on storage,"[2]; PEG 400, 40° C.",10% loss
same,Loss of Compound 1 on storage,"[2]; PEG 400, 50° C.",~28% loss
same,Loss of Compound 1 on storage,"[2]; PEG 400, RT storage",No Loss
same,Stability conclusion,[2]; PEG 400,Unstable at > RT
same,Loss of Compound 1 on storage,"[2]; Phenoxyethanol +0.1% BHT, 40° C.",No Loss
same,Loss of Compound 1 on storage,"[2]; Phenoxyethanol +0.1% BHT, 50° C.",No Loss
same,Loss of Compound 1 on storage,"[2]; Phenoxyethanol +0.1% BHT, RT storage",No Loss
same,Stability conclusion,[2]; Phenoxyethanol +0.1% BHT,STABLE AT ALL
same,Loss of Compound 1 on storage,"[2]; Phenoxyethanol, 40° C.",No Loss
same,Loss of Compound 1 on storage,"[2]; Phenoxyethanol, 50° C.",No Loss
same,Loss of Compound 1 on storage,"[2]; Phenoxyethanol, RT storage",No Loss
same,Stability conclusion,[2]; Phenoxyethanol,STABLE AT ALL
same,Loss of Compound 1 on storage,"[2]; Propylene Glycol, 40° C.",No Loss
same,Loss of Compound 1 on storage,"[2]; Propylene Glycol, 50° C.",No Loss
same,Loss of Compound 1 on storage,"[2]; Propylene Glycol, RT storage",No Loss
same,Stability conclusion,[2]; Propylene Glycol,STABLE AT ALL
same,Loss of Compound 1 on storage,"[2]; Transcutol (DEGEE) +0.1% BHT, 40° C.",No Loss
same,Loss of Compound 1 on storage,"[2]; Transcutol (DEGEE) +0.1% BHT, 50° C.",No Loss
same,Loss of Compound 1 on storage,"[2]; Transcutol (DEGEE) +0.1% BHT, RT storage",No Loss
same,Stability conclusion,[2]; Transcutol (DEGEE) +0.1% BHT,STABLE AT ALL
same,Loss of Compound 1 on storage,"[2]; Transcutol (DEGEE), 40° C.",No Loss
same,Loss of Compound 1 on storage,"[2]; Transcutol (DEGEE), 50° C.",No Loss
same,Loss of Compound 1 on storage,"[2]; Transcutol (DEGEE), RT storage",No Loss
same,Stability conclusion,[2]; Transcutol (DEGEE),STABLE AT ALL
same,Loss of Compound 1 on storage,"[2]; pH 3 Citrate buffer, 40° C.",No Loss
same,Loss of Compound 1 on storage,"[2]; pH 3 Citrate buffer, 50° C.",No Loss
same,Loss of Compound 1 on storage,"[2]; pH 3 Citrate buffer, RT storage",No Loss
same,Stability conclusion,[2]; pH 3 Citrate buffer,STABLE AT ALL
same,Loss of Compound 1 on storage,"[2]; pH4 Citrate buffer, 40° C.",No Loss
same,Loss of Compound 1 on storage,"[2]; pH4 Citrate buffer, 50° C.",No Loss
same,Loss of Compound 1 on storage,"[2]; pH4 Citrate buffer, RT storage",No Loss
same,Stability conclusion,[2]; pH4 Citrate buffer,STABLE AT ALL
same,Loss of Compound 1 on storage,"[2]; pH5 Citrate buffer, 40° C.",No Loss
same,Loss of Compound 1 on storage,"[2]; pH5 Citrate buffer, 50° C.",No Loss
same,Loss of Compound 1 on storage,"[2]; pH5 Citrate buffer, RT storage",No Loss
same,Stability conclusion,[2]; pH5 Citrate buffer,STABLE AT ALL
same,Stability of Compound 1 with excipients (summary),[2]; solubility and compatibility experiments,relatively stable except with PEG400 and Diethyl Sebacate
same,Known stability of the active ingredient,[3],greater than 5 years
same,Gene expression of the profibrotic genes investigated,[4]; FIG. 7,consistent tendency to dose-dependently reduce gene expression
same,"Change in gene expression, ADAM12",[4]; [6],−52%
same,"Change in gene expression, ADAMTS14",[4]; [6],−52%
same,"Change in gene expression, BMP1",[4]; [6],−47%
same,"Change in gene expression, COL1A1",[4]; [6],−49%
same,"Change in gene expression, COL1A2",[4]; [6],−48%
same,"Change in gene expression, COL3A1",[4]; [6],−49%
same,"Change in gene expression, MMP2",[4]; [6],−52%
same,"Change in gene expression, MMP9",[4]; [6],−54%
same,"Change in gene expression, MMP14",[4]; [6],−42%
same,"Change in gene expression, TGF-β1",[4]; [6],up to −23%
same,"Change in gene expression, TGF-β2",[4]; [6],≤ −32%
same,"Change in gene expression, TGF-β3",[4]; [6],≤ −49%
same,"Change in gene expression, THBS4",[4]; [6],−67%
same,"Change in gene expression, TIMP1",[4]; [6],−17%
same,"Change in gene expression, TIMP2",[4]; [6],−46%
same,"Wound healing (histology: new collagen, re-epithelialisation)",[5]; Day 21,wound healing was not compromised
same,Adverse clinical signs,"[5]; in-life period, topical 0.1%, 0.3% or 1% twice daily for 14 days",No adverse clinical signs
same,Fibrosis (gene expression and histology data),[5]; topical administration,inhibits fibrosis
